Experimental data published in patent US12240892B2, “Pharmaceutical composition comprising expression or activity inhibitor of c-src for preventing or treating synucleinopathy” (AJOU UNIVERSITY INDUSTRY-ACADEMIC COOPERATION FOUNDATION, priority 2018, dated 2025).

Legend:
SHSY5Y cell line = test: α-syn intercellular migration, two-chamber co-culture, immunostaining and confocal microscopy; assay type: cell-based; details: 0.1 μM saracatinib, 10 μM SKI; co-culture 12 hours with SHSY5Y overexpressing α-syn; vs PBS control
Description: The SHSY5Y cell overexpressing alpha-synuclein was seeded at 4×10^4 in a 12-well plate in an insert well using a two-chamber system, and the SHSY5Y cell line was seeded at 4×10^4 on the cover glass. The next day, the insert well was transferred to a 12-well cover glass, and during co-culture for 12 hours, the SHSY5Y cell line was treated with 0.1 μM saracatinib and 10 μM SKI (c-src kinase inhibitor I), which are c-src inhibitors, and then alpha-synuclein in SHSY5Y cell line on the cover glass was immunostained (α-syn: red, nucleus: blue) and observed using a confocal microscope to confirm that alpha-synuclein was migrated from SHSY5Y overexpressing alpha-synuclein to SHSY5Y not overexpressing alpha-synuclein.
Next, c-src knockdown SHSY5Y cell lines (KD #1 and KD #2), constructed using shRNAs of […], and dopaminergic neuronal cell line SHSY5Y overexpressing α-syn were co-cultured for 12 hours using a two-chamber system. The co-culture will be described in brief. SHSY5Y cells were seeded at a concentration of 4×10^4 cells/well on a 12-well cover glass. […]

[1] = test system: SHSY5Y overexpressing A53T eGFP; test: Amount of aggregated α-syn in differentiated cells overexpressing A53T eGFP, confocal microscopy; assay type: cell-based; details: for amount of α-syn aggregated in the cells: Src KD SHSY5Y overexpressing A53T eGFP, 50 μM retinoid acid, differentiated 5 days

Compound	migration of α-syn (SHSY5Y cell line)	amount of aggregated α-syn ([1]; 10 μM SKI, 0.5 μM saracatinib, differentiated with 50 μM RA)	amount of α-syn aggregated in the cells [1]
COc1cc2ncnc(Nc3ccc(Oc4ccccc4)cc3)c2cc1OC [SKI]	reduced	decreased	–
SEQ ID NO: 1: shRNA against c-src: CCGGGCUCGGCUCAUUGAAGACAAUCUCGAGAUUGUCUUCAAUGAGCCGAGCUUUUUG	–	–	decreased
SEQ ID NO: 2: shRNA against c-src: CCGGGACAGACCUGUCCUUCAAGAACUCGAGUUCUUGAAGGACAGGUCUGUCUUUUUG (listed as RNA, chemistry not fully specified)	–	–	decreased
